Experimental data as given in US20210008104A1, “COMPOSITIONS AND METHODS FOR INHIBITING HIV-1 REVERSE TRANSCRIPTASE” (The United States of America, as represented by the …, priority 2017, published 2021).
“Also recorded” adds a separate entry of the source. One block for each compound: values may come before it.

Experiments:
human DNA polymerase β [1] = molecular target: T1, human DNA polymerase β (Homo sapiens, UniProt P06746); experiment: Qualitative reverse reaction assay with PPi analogs; format: biochemical; set-up: made in house; conditions: 1 mM PPi analog, 10 mM MgCl2, 5′-32P-labeled nicked DNA
Experimental: Reverse reaction assay. Pol β (1 μM) was pre-incubated with 100 nM nicked DNA containing either a matched or mismatched primer terminus for 5 min at 37° C. in reaction buffer. A solution with 20 mM MgCl2 containing 2 mM PPi or pyrophosphate analog in reaction buffer was used to initiate the reaction. Following mixing, the final concentrations were 500 nM pol β, 50 nM nicked DNA, 10 mM MgCl2, and 1 mM PPi or pyrophosphate analog. Aliquots (5 or 10 μl) were removed at various times and quenched in an equal volume of 0.3 M EDTA, pH 8.0. Reaction substrates and products were separated and visualized as described above.

human DNA polymerase β [2] = molecular target: T1, human DNA polymerase β; conditions: [32P]PPi into dCTP, slope/enzyme-DNA complex
Experimental: Pyrophosphate exchange assay. Pol β (2.5 μM) was pre-incubated with 500 nM unlabeled nicked DNA substrate containing a matched primer terminal base pair (G-C, template-primer) in reaction buffer with 20 mM MgCl2 and manually mixed (1:1, v/v) with a prewarmed solution of reaction buffer, 2 mM [^32P] PPi, and 100 μM dCTP. Aliquots were withdrawn at various time points and quenched with 1 vol. of 0.3 M EDTA. Quenched reactions mixtures were applied to PEI cellulose plates and developed in 0.3 M potassium phosphate buffer, pH 8.0. Plates were scanned followed by quantitation using a phosphorimager and ImageQuant software.

[3] = molecular target: T2, pol β-nicked DNA complexes (Homo sapiens, UniProt P06746); experiment: Time-lapse crystallography of the reverse reaction
T2 construct: made in house
Experimental: Binary complex crystals with nicked DNA were grown as previously described43. The time-lapse crystallography was performed as before11 and is briefly summarized here. Binary pol β/DNA complex crystals were first transferred to a cryosolution containing 15% ethylene glycol, 50 mM imidazole, pH 7.5, 20% PEG3350, 90 mM sodium acetate, 2 mM PNP and 50 mM CaCl2) for 1 h. These ground state (GS) ternary complex crystals were then transferred to a cryosolution containing 200 mM MgCl2 for varying times. All reactions were stopped by freezing the crystals at 100K before data collection at the home source, 1.54 Å, or the Advanced Photon Source, 1.0 Å (Argonne National Laboratory). In house data collection was done on a SATURN92 CCD detector system mounted on a […] rotating anode generator. This allows for anomalous data detection after phasing by molecular replacement. […] Initial models were determined using molecular replacement with the open binary (PDB ID 3ISB) or closed ternary (PDB ID 2FMS) structures of pol β and all Rfree flags were taken from the starting model. […] The metal-ligand coordination restraints were generated by ReadySet (PHENIX) and not used until the final rounds of refinement. […] Ramachandran analysis determined 100% of nonglycine residues lie in allowed regions and at least 97% in favored regions.

human DNA polymerase β [4] = molecular target: T1, human DNA polymerase β; experiment: Single-turnover analysis of reverse reaction (pyrophosphorolysis / PNP-dependent) on nicked DNA; format: biochemical; set-up: made in house
Experimental: Reaction buffer. All kinetic measurements were performed in a buffer containing 50 mM MES, 25 mM Tris, 25 mM ethanolamine (pH 7.5 adjusted at 37° C.), 100 mM KCl, 10 mM MgCl2 supplemented with 10% glycerol, 100 μg/ml bovine serum albumin, 1 mM DTT, and 0.1 mM EDTA. […] DNA polymerase β was used to fill a 1-nucleotide gapped DNA substrate with either [^32P] dCTP or [^35S] dATP to create a 3'-radiolabeled nicked DNA substrate. The reaction mixture contained 50 mM Tris-Cl, pH 7.4 (37° C.), 100 mM KCl, 10 mM MgCl2, 1 mM DTT, 2.5 μM gapped DNA, […] [^32P] dCTP or [^35S] dATP. The single-nucleotide DNA substrate was similar to the nicked substrate described above, except the primer strand was one nucleotide shorter (3'-nucleotide deleted). Gap filling was initiated by addition of pol β and incubated at 37° C. for 5-10 min. The reaction was quenched by addition of 0.5 M EDTA (0.1 vol). To remove enzyme and unincorporated nucleotides, the mixture was extracted with phenol-chloroform-isoamyl alcohol (25:24:1) followed by two passages through BioSpin 6 columns. Aliquots of the labeling reaction were removed before and following the extraction and removal steps to determine final DNA substrate concentration. Pre- and post-aliquots (1 μl) were spotted onto PEI cellulose plates and developed in 0.375 M KH2PO4, pH 4.0. The ratio (post/preextraction) was used to correct the initial DNA concentration for loss or dilution of substrate. Kinetic parameters for the reverse reaction were determined under single turnover conditions (E/DNA=10) at 37° C. […] Time courses were initiated by mixing with an equal volume of a 20 mM MgCl2 and 50 μM dNTP trap solution in reaction buffer. The dNTP trap prevents re-insertion of radiolabeled product dNTP and corresponds to the identity of the nucleotide triphosphate produced during the reaction. […] EDTA (0.1 or 0.2 M) was used as the quenching agent. Substrates and products were resolved by TLC in either 0.2 or 0.3 M NaPi, pH 7.0 buffer. Kinetic analysis. Single-turnover time courses were fit to a single exponential equation to yield the first-order rate constants (kobs) at a given concentration of GMPPNP, PPi or PNP. Under these conditions, kobs was dependent on the concentration of substrate. A secondary plot of the concentration dependence of kobs was hyperbolic and fitted by nonlinear least-squares method to equation (1) where kmax is the intrinsic rate constant for the step limiting the first nucleotide insertion (forward reaction) or removal (reverse reaction). kobs=kmax[S]/[…] (1) […] Unless noted, kinetic constants represent best-fit parameters and their standard error.

human DNA polymerase β [5] = molecular target: T1, human DNA polymerase β; experiment: Overall equilibrium constant determination (gapped vs nicked DNA); format: biochemical; set-up: made in house; conditions: dCTP
Experimental: A mixture of 500 nM pol β with single-nucleotide gapped DNA (pol/DNA=10; templating G or C) containing various concentrations of PPi (500-2,000 μM) or PNP (20, 50, 100 μM) was mixed with an equal volume of 20 mM MgCl2 containing 60-100 nM dCTP or 50 μM dGMPPNP and incubated at 37° C. for various time intervals. Aliquots (10 μl) were withdrawn at various times and quenched with an equal volume of 0.3 M EDTA. The reactions were quenched after 10-80 s and reaction products separated on a sequencing gel. The substrate (gapped DNA) and product (nicked DNA) bands were quantitated, and the overall equilibrium constant calculated; Keq=[nicked DNA][PPi]/[gapped DNA][dCTP] or [nicked DNA] [PNP]/[gapped DNA][dGMPPNP]. The mean and standard error for 6 independent determinations are reported in the text.

human DNA polymerase β [6] = molecular target: T1, human DNA polymerase β; experiment: Removal of chain-terminated or mismatched primer termini by reverse reaction; format: biochemical; set-up: made in house; conditions: G-A or G-T primer terminal mismatch
Experimental: The removal of a terminated primer terminus by the reverse reaction required enzymatic synthesis of the nicked DNA substrate. A pre-incubated mixture of 4 μM pol and 0.4 μM one-nucleotide gapped DNA was mixed 1:1 (v/v) with 20 mM MgCl2 and 0.2 μM various triphosphates of chain-terminating nucleotides ([…], or dFdCTP). The gap-filling reaction proceeded at 37° C. for 10-20 min to generate a terminated nicked DNA substrate. An aliquot was removed and quenched to verify complete gap filling (16-mer). The reverse reaction was initiated by addition of an equal volume of 10 mM MgCl2 and 250 μM PPi or PNP. An aliquot (time=3 min) was removed, quenched, and analyzed on a denaturing gel. The removal of a terminal mismatch by a reverse reaction was followed by incubation of […] Pol with 100 nM 5'-^32P-labeled nicked DNA substrate with a matched (G-C) or mismatched (G-A or G-T) primer terminal base pair for 5 min at 37° C. This was mixed with a solution of 20 mM MgCl2 and 2 mM PPi or PNP (1:1, v/v) to initiate the reaction.

human DNA polymerase β [7] = molecular target: T1, human DNA polymerase β; experiment: Gap filling DNA synthesis kinetic assay (single-turnover insertion); format: biochemical; set-up: made in house
Experimental: Gap filling DNA synthesis kinetic assay. To measure the rate of the first insertion (kpol) and apparent equilibrium nucleotide dissociation constant (Kd), single-turnover kinetic assays (enzyme/DNA=10) were performed as described previously. Briefly, a pre-incubated solution of enzyme and DNA was rapidly mixed with various concentrations of MgCl2 and dGMPPNP using a Kintek RQF-3 rapid quench-flow. Reactions were quenched with 0.25 M EDTA.
where S=dGMPPNP, PPi, or PNP. For the insertion of dGMPPNP, the secondary plot was fit to a quadratic equation (equation (2)) due to its high affinity relative to the enzyme concentration.
kobs=(kpol)(((Kd+[dGMPPNP]+[EDNA])((Kd+[dGMPPNP]+[EDNA])^2)−(4[dGMPPNP][EDNA]))^0.5)/2[EDNA] (2)

[8] = single-turnover gap filling, relative to natural nucleotide

SMILES: O=P(O)(O)OP(=O)(O)O [PPi, pyrophosphate]
observed rate for the exchange reaction (human DNA polymerase β [2]): 0.028 s⁻¹ | reverse reaction in crystals ([3]; binary pol β-nicked DNA crystals soaked with ligand): did not generate dNTP | kobs for removal of 32P-labeled dAMP (human DNA polymerase β [4]; 1 mM PPi, 3′-[32P]dAMP primer terminus, single-turnover): 0.030 s⁻¹ | kobs for removal of 35S-labeled dAMP (human DNA polymerase β [4]; 1 mM PPi, 3′-[35S]dAMP (phosphorothioate) primer terminus, single-turnover): 0.039 s⁻¹ | Kd (human DNA polymerase β [4]; nicked DNA with 3′-[32P]dCMP, single-turnover, secondary plot of kobs, read-out: apparent PPi binding affinity (Kd)): ~90 µM | observed rate constant for the reverse reaction (krev) (human DNA polymerase β [4]; nicked DNA, single-turnover (enzyme/DNA>1)): ~0.03 s⁻¹ | phosphorothioate (thio-elemental) effect krev(O)/krev(S) (human DNA polymerase β [4]; removal of 3′-terminal Rp-phosphorothioate nucleotide vs dAMP): no phosphorothioate elemental effect | calculated equilibrium constant (human DNA polymerase β [5]; 1000 μM PPi): 62,700 | calculated equilibrium constant (human DNA polymerase β [5]; 2000 M PPi): 82,300 | overall equilibrium constant Keq (human DNA polymerase β [5]; different PPi concentrations, mean and standard error of 6 determinations): 68,700±7,200 | removal of a 3′ mismatched nucleotide (human DNA polymerase β [6]): very poor

SMILES: Nc1nc2c(ncn2[C@H]2C[C@H](O)[C@@H](COP(=O)(O)OP(=O)(O)NP(=O)(O)O)O2)c(=O)[nH]1 [dGMPPNP, 2′-deoxyguanosine-5′-[(β, γ)-imido]triphosphate]
inhibition of the forward reaction (human DNA polymerase β [7]; binds tightly and is inserted slowly): good inhibitor | binding affinity (human DNA polymerase β [7]; [8]): increased | rate of insertion (human DNA polymerase β [7]; [8]): strongly diminished; also recorded: two orders of magnitude

More lines, now with the values ahead:

ability to serve as substrate for the reverse reaction (qualitative) (human DNA polymerase β [1]): poor
SMILES: O=P(O)(O)C(Cl)(Cl)P(=O)(O)O [clodronate]

ability to serve as substrate for the reverse reaction (qualitative) (human DNA polymerase β [1]): moderate
SMILES: CC(O)(P(=O)(O)O)P(=O)(O)O [etidronate]

ability to serve as substrate for the reverse reaction (qualitative) (human DNA polymerase β [1]): poor
SMILES: NCCC(O)(P(=O)(O)O)P(=O)(O)O [pamidronate]

complexes that had undergone a reverse reaction (occupancy refinement) ([3]; short Mg2+ soak of PNP-Ca2+ ternary complex crystals): approximately 40%
SMILES: O=P(O)(O)NP(=O)(O)O [PNP, imidodiphosphate]
